Assays:
[1] = system: NNK-induced pulmonary adenomas; test: NNK-induced lung tumorigenesis; format: in vivo; conditions: mice, drug by injection 20 mg/kg daily, 10 μmol NNK i.p., sixteen weeks
Description: Every group had 20 mice For treatment group, each mouse was gave Drug by injection at dose of 20 mg/kg daily. For control group, each mouse was gave same volume of physiological saline Three days later, mice were gave 10 μmol NNK (in 0.1 ml saline) by i.p injection. Sixteen weeks after these treatments the mice were killed and pulmonary adenomas were counted The statistical significance of bioassay data was determined by student's test.

Normal cells = test: Apoptosis of normal cells; format: cell-based
Description: (§1) Cells ([…] were incubated in 10 ml IMDM plus […] heat-inactivated fetal calf serum. Samples were incubated for 24 hours with various concentrations of drugs Control samples received the same amount of media, without drug addition After 24 hours of incubation the samples were pelleted and fixed in ethanol 705 for 15 minutes at 4° C., after three washes in PBS, the cells were treated with PNase I 0.5 mg/ml for 15 minutes at 37° C. The cells were harvested by centrifugation and resuspended in 50 μg/ml propidium iodide in PBS. Analysis (upon acquisition of 10,000-20,000 events) was performed on a FACscan flow cytometer with the FL2 detector in logarithmic mode, using Lysis II software (Becton Dickinson). Apoptotic cells were located in the hypodiploid region of the histogram, due to chromosome condensation and fragmentation
(§2) For evaluation of apoptosis by flow cytometry, cells were fixed and permeabilized in 1% paraformaldehyde and ice-cold 70% ethanol Digoxigenin-dUTP was incorporated at the 3′OH ends of the fragmented DNA in the presence of terminal deoxynucleotidyltranserase, and the cells were incubated with FITC-labeled anti-digoxigenin-dUTP and with propidium iodide. Green (apoptotic cells) and orange (total DNA) fluorescence were measured with a FACScan flow cytometer and analyzed with LYSIS It and CELLFIT programs Data were analyzed by Student's t-test P values were considered significant when <0.05.
(§3) Untreated and treated HL-60 cells collected by centrifugation, washed in phosphate buffered saline and re-suspended at a concentration of 5×10^6 cells and 0.1% RNase A. The mixture was incubated at 37° C. for 30 min and then incubated for an additional 30 min at 37° C. Buffer was added and 25 μl of the tube content transferred to the Horizontal 1.5% agarose gel electrophoresis was performed at 2 V/cm DNA in gels visualized under UV light after staining with ethidium Bromide (5 μg/ml)
(§4) DNA fragmentation assays DNA cleavage was performed, quantitation of fractional solubilized DNA by diphenylamine assay and the percentage of cells harboring fragmented DNA determined by in labeling techniques For the diphenylamine assay, 5×10^6 cells were lysed in 0 5 mL lysis buffer (5 mmol/L Tris-HCI, 20 mmol/L DTA, and 0 5% Triton X-100, pH 8 0) at 4° C. Lysates were centrifuged (15,000 g) for separation of high molecular weight DNA (pellet) and DNA cleavage products (supernatant). DNA was precipitated with 0.5 N perchloric acid and quantitated using diphenylamine reagent. The cell cycle distribution was determined 4 hours after addition of drug and represents mean±SD of 5 independent experiments
(§5) Apoptosis of HL-60 cells was assessed by changes in cell morphology and by measurement of DNA nicks using the Apop Tag Kkt (Oncor, Gaithersburg, MD). […] These changes are detected on cytospin preparations stained with Diff-Quick Stain Set Apoptotic cells were enumerated in a total of about 300 cells by light microscopy

[2] = Toxic doses for mice (repeated injection); format: in vivo; conditions: 38 normal mice, injection 2 mg/kg/day×5, observation period of 5 days
Description: Toxic doses for dogs 0 16 mg/kg/day×7 of HHT was established as the toxic doses. Toxic doses for mice In 38 normal mice after injection of HHT of 2 mg/kg/day×5 with the observation period of 5 days about 50% of the mice died.

[3] = system: Human leukemia cells (HL-60); test: Apoptosis of human leukemia cells; format: cell-based
Description: Human leukemia cells (HL-60) were grown in RPMI Medium 1640 supplemented with 10% (v/v) heat-inactivated FBS (56° C. for 30 min) at 37° C. in a humidified 95% air/5% CO2 atmosphere. Cells were seeded at a level of 2×10^5 cells/ml Cells were allowed to attain a maximum density of 1 2×10^6 cells/ml before being passed by dilution into fresh medium to a concentration of 2×10^5 cells/ml Cell pellets containing 5×10^6 cells were fixed with 2 5% glutaraldehyde in cacodylate buffer (pH 7 4), dehydrated through graded alcohol, and infiltrated with LX-112 epoxy resin. After overnight polymerization at 60° C. 1-μm sections were cut with glass knives using a microtome.
as §1, §2, §3
as §4, with “Lysates were centrifuged (15,000 g) for separation of high molecular weight DNA (pellet) and DNA cleavage products (supernatant).” left out
as §5

[4] = system: lipid peroxidation, liver microsome; test: Lipid peroxidation in liver microsome (MDA, TBA); format: biochemical, rats; conditions: drug 50 μM, 37° C.
Description: The liver microsome (1 mg protein) in 0.15 M KCl, 0 25 M Tris-HCl buffer, pH 7.5, 2 mμ ADP, 10 μM FeSO4 and Drug B (50 μM) were incubated at 37° C. for 5 min The reactions were terminated after 30 min by added 2 ml thiobarbituric acid (TBA) and content of the malondialdehyde (MDA) formed was determined.

L615 transplanted tumor = test: Growth of transplanted tumor in mice; format: in vivo; conditions: intraperitoneally, other drugs 20 mg/kg, sacrificed on the 12th day
Description: Male mice, weight 20-22 g, were used in the experiment 1×10^7 tumor cells were injected to mouse and other drugs injected intraperitoneally began second day. All mice were sacrificed on the 12th day, isolated the tumor and weighed and calculated the inhibition rate of tumor weight
The effect of other drugs and HHT on the growth of animal transplanted tumor as illustrated by the Table 6 20 mg/kg of other drugs could inhibit the growth of L615 transplanted tumor.

human cancer cells = test: Inhibition of tumor cell proliferation; format: cell-based; conditions: 1 μg/ml drug, 72 hours
Description: Human tumor cell lines Hela leukemia HL-60, malignant melanocarcinoma B16, oral epidermoid carcinoma (KB), lung carcinoma (A549), breast carcinoma MCF-7, adenocarcinoma of stomach Animal tumor cell lines Walker carcinoma, LLC-WRC-256, malignant melanoma (RMMI 1846), 3T3, and S-180 sarcoma (CCRF-180). All lines were routinely cultured in the RPMI1640 medium supplemented 20% fetal calf serum. The experiment was carried out in 96 microplate, each well had 5×10^5 cells and given desired concentration of 1 μg /ml (1×10^−6 g/ml) drug Then the plate was incubated at 37° C. in an atmosphere of humidified air enriched with 5 percent carbon dioxide for 72 hours
Inhibition percent rate of tumor cell proliferation was obtained according to the bellow formula [formula]

HL-60 cells = test: Diversion (differentiation) of human leukemic cells, NBT reduction; format: cell-based; conditions: IND, MAT, YLE, LIK, APN and PYE 50 ng/ml, higher NBT (%) means higher normal cells
Description: HL-60 cells were established from a patient with acute myeloid leukemia. The cells were cultured in culture flasks with RPMI plus 10% FCS
Differentiation of HL-60 cells was assessed by their abilities to produced superoxide as measured by reduction of NBT, by NSE staining and by morphology as detected on cytospin preparations stained with Diff-Quick stain Set, and by analysis of membrane-bound differentiation markers with two-color immunofluorescence Briefly, cells were preincubated at 4° C. for 60 min in 10% human AB serum and then with FITC-conjugated mouse IgGI isotype control Analysis of fluorescence was performed on a flow cytometer.
NBT % indicated percentage of normal cells

tyrosine kinase (TK) = test: Tyrosine kinase (TK) assay of HL-60 leukemia cells; format: cell-based, human
Description: Tyrosine kinase (TK) Assay. TK was measured by a modification of the method of Braun et al Briefly, H-60 leukemia cells were plated at a density of 5×10^5 cells in […], and divided control and treatments groups for incubation 24 hours at 37° C. with 5% CO2. The cells were collected by scraping, washed twice with phosphate-buffered saline, and resuspended at density of 10^6 cells/ml in 5 mM HEPESs buffer (pH 7.4). The cells were then resuspended in 1 ml of buffer containing 5 mM HEPES (pH 7.6), 1 mM MgCl2 and ImM EDTA, then placed on ice bath The cell membrane was disrupted by ultra sound and centrifuged at 1,000×g for 10 minutes The supernatant was ultra centrifuged at 30,000×g for 30 minutes at 4° C. The pellet was resuspended in 0 3 ml of buffer containing 25 mM HEOES, centrifuged at 12,000×g for 5 minutes The resulting supernatant was used for TK assay. Content of protein was determined 10 μg of protein placed in 20 mM HEPES (pH 7 6), 15 mM MgCl2, 10 nM ZnCl2 and 5% (v/v) nonidet P-40, with or without substrate [glutamic acid (GT), mg/ml]. After 5 minutes incubation at 25° C., the reaction was initiated by the addition of 25 μM [γ^32P] ATP (3 ci/mmol) After 10 minutes, the reaction was stopped by the addition of 20 mM cold ATP. 50 μl of the mixtures were spotted on glass microfiber filter discs and washed three times with cold trichloroacetic acid (TCA), contained 1 mM sodium pyrophosphate Air dried. Radioactivity was determined by liquid scintillation spectrometry. The net TK activity was determined after correcting for endogenous TK activity

carcinogen-DNA binding = test: Inhibition of carcinogen-DNA binding; format: cell-based
Description: Cells were maintained in 75-cm^2 tissue culture flask with media supplemented with retinoic acid (0 1 μg/ml) and epinephrine (0 5 μg/ml) The cells were passage when they reached approximately 80% confluence and were maintained at 37° C. in 5% CO2. Cells were plated at a density of 5×10^5 cells/well in 6-well tissue culture plates and allowed to incubated for 18 h at 37° C. in 5% CO2 Following incubation, the DNA was harvested and resuspended in Tris-EDTA buffer RNA was removed by treating with RNase T1 and RNase A at 37° C. for 1 h. An aliquot was used for determining the DNA content by the absorbency at 260 nm, and the rest of the sample was used to determine the radioactivity; the percentage inhibition of carcinogen-DNA binding was determined by measuring the cpm/mg of DNA in the carcinogen

gastric cancer cells = test: Diversion of gastric cancer cells, NBT; format: cell-based
Description: The gastric cancer cells and normal cells were cultured in PRMI 1640 medium supplement with 10% FCS serum Other method is similar to example 10

Homoharringtonine [HHT]
Tumor incidence (%) [1]: 35.8 ± 4.5%
Apoptosis (%) (Normal cells; HHT 10 ng/ml): 16.5 ± 2.0 %
Apoptosis (%) (Normal cells; HHT 50 ng/ml): 18.5 ± 2.5 %
Apoptosis (%) (Normal cells; HHT 50 ng/ml alone or with 50 ng/ml of the other drug (Table 4)): 18.5 ± 2.5%
Apoptosis (%) (Normal cells; HHT 100 ng/ml): 22.0 ± 3.5 %
Apoptosis (%) (Normal cells; HHT 500 ng/ml): 29.5 ± 5.2 %
mice died [2]: about 50%
Apoptosis (%) ([3]; Human leukemia cell, HHT 50 ng/ml alone or with 50 ng/ml of the other drug (Table 4)): 42.8 ± 5.2%
Apoptosis (%) ([3]; Human leukemia cells, HHT 10 ng/ml): 33.8 ± 4.8 %
Apoptosis (%) ([3]; Human leukemia cells, HHT 50 ng/ml): 42.8 ± 5.2 %
Apoptosis (%) ([3]; Human leukemia cells, HHT 100 ng/ml): 60.2 ± 8.9 %
Apoptosis (%) ([3]; Human leukemia cells, HHT 500 ng/ml): 92.0 ± 10.8 %
Nmoles MDA/mg protein [4]: 8.5 ± 1.0 Nmoles MDA/mg protein
Inhibition (%) of transplanted tumor (tumor weight) (L615 transplanted tumor): 68 ± 7.2%
Inhibition (%) of growth of cancer cells (human cancer cells): 73.8 ± 8.1%
NBT (%) (HL-60 cells): 65 ± 7.0 %
inhibition of TK activity (tyrosine kinase (TK); HL-60, 10^−8 M): 12.2%
% of control activity (TK) (tyrosine kinase (TK); HL-60 leukemia cells, 10^−6 M, 24 hours): 0.6%
% of control activity (TK) (tyrosine kinase (TK); HL-60 leukemia cells, 10^−7 M, 24 hours): 21.5 ± 4.0%
% of control activity (TK) (tyrosine kinase (TK); HL-60 leukemia cells, 10^−8 M, 24 hours): 87.8 ± 12%
% of control activity (TK) (tyrosine kinase (TK); Table 8, HHT alone or with other drug, concentration not given): 21.5 ± 4.0%
Inhibition (%) of carcinogen-DNA binding (carcinogen-DNA binding): 56.8 ± 6.2%
NBT (%) (gastric cancer cells): 58 ± 8.9 %

From patent publication US20040072790A1, “Safe natural pharmaceutical composition for treating cancer” (priority 2002, published 2004)
